Peptide text beside a SMILES is read from it.
Columns and labels:
[1] = molecular target: Neuronal acetylcholine receptor; alpha2/beta4 (Homo sapiens, UniProt P30926+Q15822); assay: Inhibitory concentration against Nicotinic acetylcholine receptor alpha2-beta4; Range is 0.3-1.5 nM; assay type: protein-complex assay
[2] = molecular target: Neuronal acetylcholine receptor; alpha2/beta2 (Homo sapiens, UniProt P17787+Q15822); assay: Inhibitory concentration against Nicotinic acetylcholine receptor alpha2-beta2; Range is 0.3-1.5 nM; assay type: protein-complex assay
[3] = molecular target: Neuronal acetylcholine receptor subunit alpha-7 (Homo sapiens, UniProt P36544); assay: Inhibitory concentration against Nicotinic acetylcholine receptor alpha7; Range is 0.3-1.5 nM
[4] = molecular target: Neuronal acetylcholine receptor; alpha4/beta2 (Homo sapiens, UniProt P17787+P43681); assay: Inhibitory concentration against Nicotinic acetylcholine receptor alpha4-beta2; Range is 0.3-1.5 nM; assay type: protein-complex assay
[5] = molecular target: Neuronal acetylcholine receptor; alpha3/beta2 (Homo sapiens, UniProt P17787+P32297); assay: Inhibitory concentration against Nicotinic acetylcholine receptor alpha3-beta2; Range is 0.3-1.5 nM; assay type: protein-complex assay
[6] = molecular target: Neuronal acetylcholine receptor; alpha4/beta4 (Homo sapiens, UniProt P30926+P43681); assay: Inhibitory concentration against Nicotinic acetylcholine receptor alpha4-beta4; Range is 0.3-1.5 nM; assay type: protein-complex assay
[7] = molecular target: Neuronal acetylcholine receptor; alpha3/beta4 (Homo sapiens, UniProt P30926+P32297); assay: Inhibitory concentration against Nicotinic acetylcholine receptor alpha3-beta4; Range is 0.3-1.5 nM; assay type: protein-complex assay
[8] = Inhibitory concentration against Nicotinic acetylcholine receptor alpha-6-alpha-3-beta-2; Range is 0.3-1.5 nM; parameters: species or system Homo sapiens
[9] = Inhibitory concentration against Nicotinic acetylcholine receptor alpha 6/alpha-3-beta-4; Range is 0.3-1.5 nM; parameters: species or system Homo sapiens

Measured: IC50

Sequence of Neuronal acetylcholine receptor; alpha4/beta4 (P30926 whole entry): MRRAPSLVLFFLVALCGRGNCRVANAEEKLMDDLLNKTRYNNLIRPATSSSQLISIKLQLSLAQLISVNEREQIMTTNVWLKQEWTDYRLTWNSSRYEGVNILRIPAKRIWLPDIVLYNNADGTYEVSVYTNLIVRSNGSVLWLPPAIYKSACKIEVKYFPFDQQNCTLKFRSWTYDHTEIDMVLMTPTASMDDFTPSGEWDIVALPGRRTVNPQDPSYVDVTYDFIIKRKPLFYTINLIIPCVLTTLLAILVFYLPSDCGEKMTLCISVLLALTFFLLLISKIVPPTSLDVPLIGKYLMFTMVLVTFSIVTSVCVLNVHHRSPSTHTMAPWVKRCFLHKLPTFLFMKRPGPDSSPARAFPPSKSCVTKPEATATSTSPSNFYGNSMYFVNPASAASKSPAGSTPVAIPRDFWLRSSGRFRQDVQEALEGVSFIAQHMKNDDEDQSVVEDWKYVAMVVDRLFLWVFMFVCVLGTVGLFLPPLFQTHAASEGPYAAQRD
Sequence of Neuronal acetylcholine receptor; alpha4/beta4 (P43681 whole entry): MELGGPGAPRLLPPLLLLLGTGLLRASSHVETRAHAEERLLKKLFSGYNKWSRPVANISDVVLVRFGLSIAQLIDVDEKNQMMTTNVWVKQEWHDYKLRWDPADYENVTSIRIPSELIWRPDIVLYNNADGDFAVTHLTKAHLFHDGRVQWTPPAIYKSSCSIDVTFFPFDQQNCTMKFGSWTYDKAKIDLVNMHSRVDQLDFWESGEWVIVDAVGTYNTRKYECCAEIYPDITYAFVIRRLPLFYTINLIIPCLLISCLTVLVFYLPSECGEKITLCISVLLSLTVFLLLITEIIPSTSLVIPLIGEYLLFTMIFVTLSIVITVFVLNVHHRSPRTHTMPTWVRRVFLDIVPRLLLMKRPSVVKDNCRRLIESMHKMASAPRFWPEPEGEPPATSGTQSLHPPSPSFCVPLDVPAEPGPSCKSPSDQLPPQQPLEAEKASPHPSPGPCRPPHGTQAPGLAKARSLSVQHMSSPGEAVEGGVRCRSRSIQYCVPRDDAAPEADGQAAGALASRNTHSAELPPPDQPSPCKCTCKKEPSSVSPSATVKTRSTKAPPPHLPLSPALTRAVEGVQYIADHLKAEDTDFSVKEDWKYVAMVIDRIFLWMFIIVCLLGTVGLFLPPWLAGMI
Sequence of Neuronal acetylcholine receptor; alpha3/beta4 (P30926 whole entry): as the sequence (P30926 whole entry) above
Sequence of Neuronal acetylcholine receptor; alpha3/beta4 (P32297 whole entry): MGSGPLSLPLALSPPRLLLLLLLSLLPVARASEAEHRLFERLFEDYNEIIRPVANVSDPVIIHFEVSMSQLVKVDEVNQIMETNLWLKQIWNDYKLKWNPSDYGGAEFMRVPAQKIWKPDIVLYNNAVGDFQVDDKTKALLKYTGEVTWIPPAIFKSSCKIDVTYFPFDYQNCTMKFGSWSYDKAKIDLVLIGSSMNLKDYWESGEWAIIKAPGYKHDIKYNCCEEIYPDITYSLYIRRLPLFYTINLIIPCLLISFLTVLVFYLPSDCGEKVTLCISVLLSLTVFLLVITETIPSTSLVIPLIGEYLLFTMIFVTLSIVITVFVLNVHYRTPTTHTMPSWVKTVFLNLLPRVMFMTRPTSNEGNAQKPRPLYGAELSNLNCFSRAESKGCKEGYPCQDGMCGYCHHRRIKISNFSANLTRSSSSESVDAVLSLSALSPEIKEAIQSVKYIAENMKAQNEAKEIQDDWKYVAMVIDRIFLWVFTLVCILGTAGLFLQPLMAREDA
Sequence of Neuronal acetylcholine receptor; alpha2/beta4 (P30926 whole entry): as the sequence (P30926 whole entry) above
Sequence of Neuronal acetylcholine receptor; alpha2/beta4 (Q15822 whole entry): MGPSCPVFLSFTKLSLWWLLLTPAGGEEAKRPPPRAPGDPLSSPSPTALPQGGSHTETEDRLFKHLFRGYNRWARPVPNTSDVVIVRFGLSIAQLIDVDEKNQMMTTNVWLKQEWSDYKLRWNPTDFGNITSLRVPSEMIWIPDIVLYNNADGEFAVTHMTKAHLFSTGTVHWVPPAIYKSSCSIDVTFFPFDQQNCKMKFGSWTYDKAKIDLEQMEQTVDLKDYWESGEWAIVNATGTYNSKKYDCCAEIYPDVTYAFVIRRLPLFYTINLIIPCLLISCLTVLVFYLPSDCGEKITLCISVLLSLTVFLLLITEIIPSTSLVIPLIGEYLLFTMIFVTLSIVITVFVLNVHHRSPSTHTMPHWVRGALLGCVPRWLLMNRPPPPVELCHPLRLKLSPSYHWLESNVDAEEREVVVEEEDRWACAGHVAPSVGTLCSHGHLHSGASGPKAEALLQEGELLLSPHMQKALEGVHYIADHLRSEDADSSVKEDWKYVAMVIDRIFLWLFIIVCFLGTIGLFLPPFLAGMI
Sequence of Neuronal acetylcholine receptor subunit alpha-7 (P36544 whole entry): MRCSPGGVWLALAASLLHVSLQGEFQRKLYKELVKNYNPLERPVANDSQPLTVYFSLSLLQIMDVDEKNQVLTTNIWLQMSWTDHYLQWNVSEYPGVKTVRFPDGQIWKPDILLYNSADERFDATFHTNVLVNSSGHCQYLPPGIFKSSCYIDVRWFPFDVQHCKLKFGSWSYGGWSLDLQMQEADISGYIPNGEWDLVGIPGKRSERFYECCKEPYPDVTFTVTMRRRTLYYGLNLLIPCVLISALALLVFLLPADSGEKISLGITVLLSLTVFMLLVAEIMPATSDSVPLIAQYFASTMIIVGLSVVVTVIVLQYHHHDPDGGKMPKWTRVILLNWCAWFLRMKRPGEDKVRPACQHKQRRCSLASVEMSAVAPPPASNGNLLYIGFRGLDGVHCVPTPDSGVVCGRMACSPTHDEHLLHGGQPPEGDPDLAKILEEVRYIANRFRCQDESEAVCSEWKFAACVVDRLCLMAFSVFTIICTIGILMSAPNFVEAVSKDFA
Sequence of Neuronal acetylcholine receptor; alpha2/beta2 (P17787 whole entry): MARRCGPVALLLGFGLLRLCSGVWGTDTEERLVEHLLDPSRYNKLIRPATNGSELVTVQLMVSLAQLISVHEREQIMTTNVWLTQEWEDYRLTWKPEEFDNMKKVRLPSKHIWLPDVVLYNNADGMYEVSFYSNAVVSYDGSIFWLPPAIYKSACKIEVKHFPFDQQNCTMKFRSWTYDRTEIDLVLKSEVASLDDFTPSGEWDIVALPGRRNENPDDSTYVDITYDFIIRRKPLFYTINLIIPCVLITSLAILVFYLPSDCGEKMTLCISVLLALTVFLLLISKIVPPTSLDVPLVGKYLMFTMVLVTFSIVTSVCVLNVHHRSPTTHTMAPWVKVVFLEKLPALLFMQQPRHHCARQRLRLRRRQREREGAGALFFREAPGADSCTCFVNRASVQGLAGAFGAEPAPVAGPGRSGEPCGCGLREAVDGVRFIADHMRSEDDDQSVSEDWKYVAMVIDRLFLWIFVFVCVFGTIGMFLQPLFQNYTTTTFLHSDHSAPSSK
Sequence of Neuronal acetylcholine receptor; alpha2/beta2 (Q15822 whole entry): as the sequence (Q15822 whole entry) above
Sequence of Neuronal acetylcholine receptor; alpha4/beta2 (P17787 whole entry): as the sequence (P17787 whole entry) above
Sequence of Neuronal acetylcholine receptor; alpha4/beta2 (P43681 whole entry): as the sequence (P43681 whole entry) above
Sequence of Neuronal acetylcholine receptor; alpha3/beta2 (P17787 whole entry): as the sequence (P17787 whole entry) above
Sequence of Neuronal acetylcholine receptor; alpha3/beta2 (P32297 whole entry): as the sequence (P32297 whole entry) above

CC(C)C[C@H](NC(=O)[C@@H](NC(=O)[C@H](C)NC(=O)[C@H](CS)NC(=O)[C@@H]1CCCN1C(=O)[C@@H]1CCCN1C(=O)[C@@H](NC(=O)[C@H](CO)NC(=O)[C@H](CS)NC(=O)[C@H](CS)NC(=O)CN)[C@@H](C)O)C(C)C)C(=O)N[C@@H](Cc1ccc(O)cc1)C(=O)N[C@@H](CS)C(=O)NCC(=O)N[C@@H](CCCNC(=N)N)C(=O)N[C@@H](CCCNC(=N)N)C(=O)N[C@H](C=O)CCCNC(=N)N (H-GCCSTPPCAVLYCGRRR-aldehyde)
not listed: [8] | [9]
1.5 nM: all other assays above

CC(C)C[C@H](NC(=O)[C@@H](NC(=O)[C@H](C)NC(=O)[C@H](CS)NC(=O)[C@@H]1CCCN1C(=O)[C@@H]1CCCN1C(=O)[C@@H](NC(=O)[C@H](CO)NC(=O)[C@H](CS)NC(=O)[C@H](CS)NC(=O)CN)[C@@H](C)O)C(C)C)C(=O)N[C@@H](Cc1ccc(O)cc1)C(=O)N[C@@H](CS)C(=O)NCC(=O)N[C@@H](CCCN=C(N)N)C(=O)N[C@@H](CCCN=C(N)N)C(=O)N[C@H](C=O)CCCN=C(N)N (H-GCCSTPPCAVLYCGRRR-aldehyde)
1.5 nM: [8] | [9]
